Test results reported in article PMC2792877 (Biochemistry, 2008).

Biological target: pa-FPR (Pseudomonas aeruginosa, UniProt Q9HYK7)
Assay: 1H-15N HSQC NMR titration, […] fit
Format: binding

Chain of pa-FPR (Q9HYK7 whole entry): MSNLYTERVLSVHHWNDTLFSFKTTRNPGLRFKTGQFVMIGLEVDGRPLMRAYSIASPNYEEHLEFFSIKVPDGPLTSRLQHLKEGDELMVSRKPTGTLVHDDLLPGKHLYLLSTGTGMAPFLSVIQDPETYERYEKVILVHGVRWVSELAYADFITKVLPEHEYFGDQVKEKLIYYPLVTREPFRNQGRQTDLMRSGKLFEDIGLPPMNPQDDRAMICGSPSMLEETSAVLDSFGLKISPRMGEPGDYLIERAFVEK

## NC(=O)c1ccc[n+]([C@@H]2O[C@H](COP(=O)(O)OP(=O)(O)OC[C@H]3O[C@@H](n4cnc5c(N)ncnc54)[C@H](OP(=O)(O)O)[C@@H]3O)[C@@H](O)[C@H]2O)c1 [NADP^+]
  Kd: 24 µM
